Structures can show the parent of a compound that is named as a salt.
Target: T1, PLK1 (Homo sapiens, UniProt P53350)
T1 construct: PLK kinase domain (amino acids 21-346 preceded by MKKGHHHHHHD); made in house; host or cells: baculovirus infected T. ni cells
Assay: Assay for inhibition of PLK1 (SPA kinase assay)
Assay type: biochemical
Conditions: 1 μM ATP, 2 nM PLK1 kinase domain, read-out: PLK1 pIC50 (converted)
Protocol: I. Assay for Inhibition of PLK1
A. Preparation of 6× N-terminal His-tagged PLK Kinase Domain
6× N-terminal His-tagged PLK kinase domain (amino acids 21-346 preceded by MKKGHHHHHHD) SEQ ID: No. 1. was prepared from baculovirus infected T. ni cells under polyhedrin promoter control. All procedures were performed at 4° C. Cells were lysed In 50 mM HEPES, 200 mM NaCl, 50 mM imidazole, 5% glycerol; pH 7.5. The homogenate was centrifuged at 14K rpm in a SLA-1500 rotor for 1 hr and the supernatant filtered through a 1.2 micron filter. The supernatant was loaded onto a Nickel chelating Sepharose (Amersham Pharmacia) column and washed with lysis buffer. Protein was eluted using 20%, 30% and 100% buffer B steps where buffer B was 50 mM HEPES, 200 mM NaCl, 300 mM imidazole, 5% glycerol; pH 7.5. Fractions containing PLK were determined by SDS-PAGE. Fractions containing PLK were diluted five-fold with 50 mM HEPES, 1 mM DTT, 5% glycerol; pH 7.5, then loaded on an SP Sepharose (Amersham Pharmacia) column. After washing the column with 50 mM HEPES, 1 mM DTT, 5% glycerol; pH 7.5, PLK was step eluted with 50 mM HEPES, 1 mM DTT, 500 mM NaCl; 5% glycerol; pH 7.5. PLK was concentrated using a 10 kDa molecular weight cutoff membrane and then loaded onto a Superdex 200 gel filtration (Amersham Pharmacia) column equilibrated in 25 mM HEPES, 1 mM DTT, 500 mM NaCl, 5% glycerol; pH 7.5. Fractions containing PLK were determined by SDS-PAGE. PLK was pooled, aliquoted and stored at −80° C. Samples were quality controlled using mass spectrometry, N-terminal sequencing and amino acid analysis.
B. Enzyme Activity +/− Inhibitors was Determined as Follows:
All measurements were obtained under conditions where signal production increased linearly with time and enzyme. Test compounds were added to white 384-well assay plates (0.1 μL for 10 μL and some 20 μL assays, 1 μL for some 20 μL assays) at variable known concentrations in 100% DMSO. DMSO (1-5% final, as appropriate) and EDTA (65 mM in reaction) were used as controls. Reaction Mix was prepared as follows at 22° C.: • 25 mM HEPES, pH 7.2 • 15 mM MgCl2 • 1 μM ATP • 0.05 μCi/well ^33P-γ ATP (10 Ci/mMol) • 1 μM substrate peptide (Biotin-Ahx-SFNDTLDFD) SEQ ID:No. 2. • 0.15 mg/mL BSA • 1 mM DTT • 2 nM PLK1 kinase domain (added last)
Reaction Mix (10 or 20 μL) was quickly added to each well immediately following addition of enzyme via automated liquid handlers and incubated 1-1.5 h at 22° C. The 20 μL enzymatic reactions were stopped with 50 μL of stop mix (50 mM EDTA, 4.0 mg/mL Streptavidin SPA beads in Standard Dulbecco's PBS (without Mg^2+ and Ca^2+), 50 μM ATP) per well. The 10 μL reactions were stopped with 10 μL of stop mix (50 mM EDTA, 3.0 mg/mL Streptavidin-coupled SPA imaging Beads (“LeadSeeker”) in Standard Dulbecco's PBS (without Mg^2+ and Ca^2+), 50 μM ATP) per well. Plates were sealed with clear plastic seals, spun at 500×g for 1 min or settled overnight, and counted in Packard TopCount for 30 seconds/well (regular SPA) or imaged using a Viewlux imager (LeadSeeker SPA). Signal above background (EDTA controls) was converted to percent Inhibition relative to that obtained in control (DMSO-only) wells.

T1 sequence (P53350 21-346): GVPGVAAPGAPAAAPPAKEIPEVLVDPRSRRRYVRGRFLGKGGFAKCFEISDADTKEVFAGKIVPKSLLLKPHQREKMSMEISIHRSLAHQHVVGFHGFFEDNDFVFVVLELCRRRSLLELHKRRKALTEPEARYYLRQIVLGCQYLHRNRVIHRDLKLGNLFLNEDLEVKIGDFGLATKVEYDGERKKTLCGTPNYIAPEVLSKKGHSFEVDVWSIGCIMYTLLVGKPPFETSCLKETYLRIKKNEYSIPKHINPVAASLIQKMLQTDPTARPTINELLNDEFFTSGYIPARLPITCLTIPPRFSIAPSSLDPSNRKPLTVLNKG

SMILES	IC50 [nM]
C[C@@H](Oc1cc(-n2cnc3cc(-c4cnn(C)c4)ccc32)sc1C(N)=O)c1ccc(F)c(OC2CCN(CCF)CC2)c1Cl [Example 35, 3-{[(1R)-1-(2-Chloro-4-fluoro-3-{[1-(2-fluoroethyl)-4-piperidinyl]oxy}phenyl)ethyl]oxy}-5-[5-(1-methyl-1H-pyrazol-4-yl)-1H-benzimidazol-1-yl]-2-thiophenecarboxamide]	< 100
C[C@@H](Oc1cc(-n2cnc3cc(-c4cnn(C)c4)ccc32)sc1C(N)=O)c1ccc(F)c(OC2CCN(CCS(C)(=O)=O)CC2)c1Cl [Example 36, 3-({(1R)-1-[2-Chloro-4-fluoro-3-({1-[2-(methylsulfonyl)ethyl]-4-piperidinyl}oxy)phenyl]ethyl}oxy)-5-[5-(1-methyl-1H-pyrazol-4-yl)-1H-benzimidazol-1-yl]-2-thiophenecarboxamide]	< 100
C[C@@H](Oc1cc(-n2cnc3cc(-c4cc[n+]([O-])cc4)ccc32)sc1C(N)=O)c1cccc(OC2CCNCC2)c1Cl [Example 37, 3-({(1R)-1-[2-Chloro-3-(4-piperidinyloxy)phenyl]ethyl}oxy)-5-[5-(1-oxido-4-pyridinyl)-1H-benzimidazol-1-yl]-2-thiophenecarboxamide]	< 100
C[C@@H](Oc1cc(-n2cnc3cc(-c4cnn(C)c4)ccc32)sc1C(N)=O)c1c(F)ccc(OC2CCN(C)CC2)c1Cl [Example 38, 3-[((1R)-1-{2-Chloro-6-fluoro-3-[(1-methyl-4-piperidinyl)oxy]phenyl}ethyl)oxy]-5-[5-(1-methyl-1H-pyrazol-4-yl)-1H-benzimidazol-1-yl]-2-thiophenecarboxamide]	< 100
COc1cc2ncn(-c3cc(O[C@H](C)c4cccc(OCC5CCN(C(=O)OC(C)(C)C)CC5)c4Cl)c(C(N)=O)s3)c2cc1OC [Example 39, 1,1-Dimethylethyl 4-[({3-[(1R)-1-({2-(aminocarbonyl)-5-[5,6-bis(methyloxy)-1H-benzimidazol-1-yl]-3-thienyl}oxy)ethyl]-2-chlorophenyl}oxy)methyl]-1-piperidinecarboxylate]	< 100
COc1cc2ncn(-c3cc(O[C@H](C)c4cccc(OCC5CCNCC5)c4Cl)c(C(N)=O)s3)c2cc1OC [Example 40, 5-[5.6-Bis(methyloxy)-1H-benzimidazol-1-yl]-3-[((1R)-1-{2-chloro-3-[(4-piperidinylmethyl)oxy]phenyl}ethyl)oxy]-2-thiophenecarboxamide]	< 100
COc1cc2ncn(-c3cc(O[C@H](C)c4cccc(OCC5CCN(C)CC5)c4Cl)c(C(N)=O)s3)c2cc1OC [Example 41, 5-[5,6-Bis(methyloxy)-1H-benzimidazol-1-yl]-3-{[(1R)-1-(2-chloro-3-{[(1-methyl-4-piperidinyl)methyl]oxy}phenyl)ethyl]oxy}-2-thiophenecarboxamide]	< 100
COc1cc2ncn(-c3cc(O[C@H](C)c4cccc(OCCN5CCN(C)CC5)c4Cl)c(C(N)=O)s3)c2cc1OC [Example 42, 5-[5,6-Bis(methyloxy)-1H-benzimidazol-1-yl]-3-{[(1R)-1-(2-chloro-3-{[2-(4-methyl-1-piperazinyl)ethyl]oxy}phenyl)ethyl]oxy}-2-thiophenecarboxamide]	< 100
C[C@@H](Oc1cc(-n2cnc3cc(-c4cnn(C)c4)ccc32)sc1C(N)=O)c1cccc(OCC2CCN(C(=O)OC(C)(C)C)CC2)c1Cl [Example 43, 1,1-Dimethylethyl 4-[({3-[(1R)-1-({2-(aminocarbonyl)-5-[5-(1-methyl-1H-pyrazol-4-yl)-1H-benzimidazol-1-yl]-3-thienyl}oxy)ethyl]-2-chlorophenyl}oxy)methyl]-1-piperidinecarboxylate]	100 to 1000
C[C@@H](Oc1cc(-n2cnc3cc(-c4cnn(C)c4)ccc32)sc1C(N)=O)c1cccc(OCC2CCNCC2)c1Cl [Example 44, 3-[((1R)-1-{2-Chloro-3-[(4-piperidinylmethyl)oxy]phenyl}ethyl)oxy]-5-[5-(1-methyl-1H-pyrazol-4-yl)-1H-benzimidazol-1-yl]-2-thiophenecarboxamide trifluoroacetate]	< 100
C[C@@H](Oc1cc(-n2cnc3cc(-c4cnn(C)c4)ccc32)sc1C(N)=O)c1cccc(OCC2CCN(C)CC2)c1Cl [Example 45, 3-{[(1R)-1-(2-Chloro--3-{[(1-methyl-4-piperidinyl)methyl]oxy}phenyl)ethyl]oxy}-5-[5-(1-methyl-1H-pyrazol-4-yl)-1H-benzimidazol-1-yl]-2-thiopnenecarboxamide]	< 100
C[C@@H](Oc1cc(-n2cnc3cc(-c4cnn(C)c4)ccc32)sc1C(N)=O)c1cccc(OC2CCN(C(=O)OC(C)(C)C)CC2)c1Cl [Example 46, 1,1-Dimethylethyl 4-({3-[(1R)-1-({2-(aminocarbonyl)-5-[5-(1-methyl-1H-pyrazol-4-yl)-1H-benzimidazol-1-yl]-3-thienyl}oxy)ethyl]-2-chlorophenyl}oxy)-1-piperidinecarboxylate]	< 100
C[C@@H](Oc1cc(-n2cnc3cc(-c4cnn(C)c4)ccc32)sc1C(N)=O)c1cccc(OC2CCNCC2)c1Cl [Example 47, 3-({(1R)-1-[2-Chloro-3-(4-piperidinyloxy)phenyl]ethyl}oxy)-5-[5-(1-methyl-1H-pyrazol-4-yl)-1H-benzimidazol-1-yl]-2-thiophenecarboxamide]	< 100
C[C@@H](Oc1cc(-n2cnc3cc(-c4cnn(C)c4)ccc32)sc1C(N)=O)c1cccc(OC2CCN(C)CC2)c1Cl [Example 48, 3-[((1R)-1-{2-Chloro-3-[(1-methyl-4-piperidinyl)oxy]phenyl}ethyl)oxy]-5-[5-(1-methyl-1H-pyrazol-4-yl)-1H-benzimidazol-1-yl]-2-thiophenecarboxamide]	< 100
Cc1cc(-c2ccc3c(c2)ncn3-c2cc(O[C@H](C)c3cccc(OC4CCNCC4)c3Cl)c(C(N)=O)s2)ccn1 [Example 49, 3-({(1R)-1-[2-Chloro-3-(4-piperidinyloxy)phenyl]ethyl}oxy)-5-[5-(2-methyl-4-pyridinyl)-1H-benzimidazol-1-yl]-2-thiophenecarboxamide]	< 100
Cc1cc(-c2ccc3c(c2)ncn3-c2cc(O[C@H](C)c3cccc(OC4CCN(C)CC4)c3Cl)c(C(N)=O)s2)ccn1 [Example 50, 3-[((1R)-1-{2-Chloro-3-[(1-methyl-4-piperidinyl)oxy]phenyl}ethyl)oxy]-5-[5-(2-methyl-4-pyridinyl)-1H-benzimidazol-1-yl]-2-thiophenecarboxamide]	< 100
C[C@@H](Oc1cc(-n2cnc3cc(Br)ccc32)sc1C(N)=O)c1cccc(OC2CCN(C)CC2)c1Cl [Example 51, 5-(5-Bromo-1H-benzimidazol-1-yl)-3-[((1R)-1-{2-chloro-3-[(1-methyl-4-piperidinyl)oxy]phenyl}ethyl)oxy]-2-thiophenecarboxamide]	< 100
C[C@@H](Oc1cc(-n2cnc3ccc(Cl)cc32)sc1C(N)=O)c1cccc(OC2CCNCC2)c1Cl [Example 52, 5-(6-Chloro-1H-benzimidazol-1-yl)-3-({(1R)-1-[2-chloro-3-(4-piperidinyloxy)phenyl]ethyl}oxy)-2-thiophenecarboxamide]	< 100
C[C@@H](Oc1cc(-n2cnc3ccc(Cl)cc32)sc1C(N)=O)c1cccc(OC2CCN(C)CC2)c1Cl [Example 53]	< 100
C[C@@H](Oc1cc(-n2cnc3ccc(CS(C)(=O)=O)cc32)sc1C(N)=O)c1cccc(OC2CCNCC2)c1Cl [Example 54, 3-({(1R)-1-[2-Chloro-3-(4-piperidinyloxy)phenyl]ethyl}oxy)-5-{6-[(methylsulfonyl)methyl]-1H-benzimidazol-1-yl}-2-thiophenecarboxamide]	< 100
